Reference: ChEMBL document CHEMBL1921757, “Small molecule probes of the receptor binding site in the Vibrio cholerae CAI-1 quorum sensing circuit” (Bioorg Med Chem, 2011)

What was measured:
Vibrio cholerae = experiment: Antibacterial activity against Vibrio cholerae MM920 assessed as growth inhibition after 4 hrs by spectrophotometry; type: organism-based; settings: in vivo
[1] = biological target: T1, CAI-1 autoinducer sensor kinase/phosphatase CqsS (Vibrio cholerae serotype O1 (strain ATCC 39315 / El Tor Inaba N16961), UniProt Q9KM66); experiment: Agonist activity at CqsS receptor in cqsA-deficient, luxQ-deficient Vibrio cholerae MM920 harboring cosmid pBB1 carrying Vibrio harveyi luxCDABE gene assessed as induction of quorum sensing regulated bioluminescence after 4 hrs by scintillation counting; type: functional
T1 sequence (Q9KM66 whole entry): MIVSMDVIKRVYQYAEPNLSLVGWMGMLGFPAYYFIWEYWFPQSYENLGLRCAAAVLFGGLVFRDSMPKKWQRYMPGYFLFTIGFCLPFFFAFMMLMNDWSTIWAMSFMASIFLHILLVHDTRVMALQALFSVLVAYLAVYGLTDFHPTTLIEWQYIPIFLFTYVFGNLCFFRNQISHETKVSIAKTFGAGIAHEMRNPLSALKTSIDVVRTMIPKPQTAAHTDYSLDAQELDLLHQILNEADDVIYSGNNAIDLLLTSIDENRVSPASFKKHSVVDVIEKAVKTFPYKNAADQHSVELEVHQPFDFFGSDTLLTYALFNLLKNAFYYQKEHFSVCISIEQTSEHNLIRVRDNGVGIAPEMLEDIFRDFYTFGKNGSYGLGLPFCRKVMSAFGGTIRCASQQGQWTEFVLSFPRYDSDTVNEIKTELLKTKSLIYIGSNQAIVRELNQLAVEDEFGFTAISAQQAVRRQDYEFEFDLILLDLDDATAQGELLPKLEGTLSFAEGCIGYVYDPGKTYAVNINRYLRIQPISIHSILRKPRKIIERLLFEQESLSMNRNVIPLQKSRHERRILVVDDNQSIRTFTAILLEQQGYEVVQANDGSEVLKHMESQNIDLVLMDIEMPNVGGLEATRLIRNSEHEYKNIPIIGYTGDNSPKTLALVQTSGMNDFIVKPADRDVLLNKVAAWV

[2] = biological target: T2, CAI-1 autoinducer sensor kinase/phosphatase CqsS (Vibrio cholerae serotype O1 (strain ATCC 39315 / El Tor Inaba N16961)) (UniProt Q9KM66); experiment: Agonist activity at CqsS receptor in cqsA-deficient, luxQ-deficient Vibrio cholerae MM920 harboring cosmid pBB1 carrying Vibrio harveyi luxCDABE gene assessed as quorum sensing regulated bioluminescence after 4 hrs by scintillation counting relative to (S)-CAI-1; type: functional
T2 sequence (whole entry): T1 sequence (Q9KM66 whole entry)

[3] = biological target: T2, CAI-1 autoinducer sensor kinase/phosphatase CqsS (Vibrio cholerae serotype O1 (strain ATCC 39315 / El Tor Inaba N16961)); experiment: Ratio of compound EC50 to (S)-CAI-1 EC50 for CqsS receptor in cqsA-deficient, luxQ-deficient Vibrio cholerae MM920 harboring cosmid pBB1 carrying Vibrio harveyi luxCDABE gene assessed as induction of quorum sensing regulated bioluminescence after 4 hrs by scintillation counting
[4] = biological target: T1, CAI-1 autoinducer sensor kinase/phosphatase CqsS; experiment: Antagonist activity at CqsS receptor in Vibrio cholerae MM920 assessed as inhibition of quorum sensing regulated CAI-1 induced bioluminescence after 4 hrs by scintillation counting; type: functional
[5] = biological target: T2, CAI-1 autoinducer sensor kinase/phosphatase CqsS (Vibrio cholerae serotype O1 (strain ATCC 39315 / El Tor Inaba N16961)); experiment: Antagonist activity at CqsS receptor in Vibrio cholerae MM920 assessed as inhibition of quorum sensing regulated CAI-1 induced bioluminescence after 4 hrs by scintillation counting relative to Ph-CAI-1; type: functional
[6] = biological target: T2, CAI-1 autoinducer sensor kinase/phosphatase CqsS (Vibrio cholerae serotype O1 (strain ATCC 39315 / El Tor Inaba N16961)); experiment: Ratio of compound IC50 to Ph-CAI-1 IC50 for CqsS receptor in Vibrio cholerae MM920 assessed as inhibition of quorum sensing regulated CAI-1 induced bioluminescence after 4 hrs by scintillation counting

Structure (SMILES) | growth inhibition (GI) (Vibrio cholerae) | EC50 [1] | Emax [2] | Ratio EC50 [3] | IC50 [4] | Imax [5] | Ratio IC50 [6]
CCCCCCCC(=O)[C@@H](O)CC | Not Active |  |  |  |  |  | 
CCCCCCCC(=O)[C@H](O)CC | Not Active |  |  |  |  |  | 
CCCCCCCCC(=O)[C@@H](O)CC | Not Active | 1.1 µM | 100% | 4.6 |  |  | 
CCCCCCCCC(=O)[C@H](O)CC | Not Active | 1.61 µM | 95% | 6.7 |  |  | 
CCCCCCCCCC(=O)[C@@H](O)CC | Not Active |  |  |  |  |  | 
CCCCCCCCCC(=O)[C@H](O)CC | Not Active |  |  |  |  |  | 
CCCCCCCCCCC(=O)[C@@H](O)CC | Not Active | 2.09 µM | 98% | 8.4 |  |  | 
CCCCCCCCCC(=O)C(=O)CC | Not Active | 3.2 µM | 92% | 14 |  |  | 
CCCCCCCCCC(O)C(=O)CC (centres undefined) | Not Active |  | 38% | 84 |  |  | 
CCCCCCCCCC(O)CCC (centres undefined) | Not Active | > 50 µM |  | > 200 |  |  | 
CCCCCCCCCC(=O)CCC | Not Active | > 50 µM |  | > 200 |  |  | 
CCCCCCCCCCC(O)CC (centres undefined) | Not Active | > 50 µM |  | > 200 |  |  | 
CCCCCCCCCCC(=O)CC | Not Active | > 50 µM |  | > 200 |  |  | 
CCCCCCCCCC(=O)C(Cl)CC (centres undefined) | Not Active | > 50 µM | 24% | > 200 |  |  | 
CCCCCCCCCC(=O)C(Br)CC (centres undefined) | Not Active | 2.4 µM | 73% | 13 |  |  | 
CCCCCCCCCC(=O)C(S)CC (centres undefined) | Not Active | 1.6 µM | 67% | 8.6 |  |  | 
CCCCCCCCCC(=O)C(N)CC.Cl (centres undefined) | Not Active | 0.21 µM | 105% | 0.27 |  |  | 
CCCCCCCCCC(=O)[C@H](C)O | Not Active | 0.34 µM | 96% | 2.6 |  |  | 
CCCCCCCCCC(O)C(O)CC (mixture of isomers) | Not Active | 4.3 µM | 83% | 18 |  |  | 
CCCCCCCCCC(=O)C(O)CCC (racemic) | Not Active | 0.78 µM | 84% | 6 |  |  | 
CCCCCCCCCC(=O)C(O)C(C)C (racemic) | Not Active | 7.16 µM | 71% | 21 |  |  | 

Structure (SMILES) | growth inhibition (GI) (Vibrio cholerae) | EC50 [1] | Emax [2] | Ratio EC50 [3] | IC50 [4] | Imax [5] | Ratio IC50 [6]
CCCCCCCCCC(=O)C(O)C(C)(C)C (racemic) | Not Active | > 50 µM |  | > 200 |  |  | 
CCCCCCCCCC(=O)C(O)c1ccccc1 (racemic) | Not Active |  |  |  | 55 µM | 100% | 1
CCCCCCCCCC(=O)C(O)c1ccccc1C (racemic) | Not Active |  |  |  | > 500 µM |  | > 9
CCCCCCCCCC(=O)C(O)c1cccc(C)c1 (racemic) | Not Active |  |  |  | 46 µM | 58% | 0.91
CCCCCCCCCC(=O)C(O)c1ccc(C)cc1 (racemic) | Not Active |  |  |  | 114 µM | 99% | 2.2
CCCCCCCCCC(=O)C(O)c1ccc(C)c(C)c1 (racemic) | Not Active |  |  |  | > 500 µM |  | > 9
CCCCCCCCCC(=O)C(O)c1ccccc1O (racemic) | Not Active |  |  |  | 172 µM | 144% | 3.4
CCCCCCCCCC(=O)C(O)c1cccc(O)c1 (racemic) | Not Active |  |  |  | 36 µM | 123% | 0.71
CCCCCCCCCC(=O)C(O)c1ccc(O)cc1 (racemic) | Not Active |  |  |  | 78 µM | 119% | 1.5
CCCCCCCCCC(=O)C(O)c1ccc(O)c(O)c1 (racemic) | Not Active |  |  |  | 174 µM | 122% | 3.4
CCCCCCCCCC(=O)C(O)c1ccccc1OC (racemic) | Not Active |  |  |  | > 500 µM |  | > 9
CCCCCCCCCC(=O)C(O)c1cccc(OC)c1 (racemic) | Not Active |  |  |  | > 500 µM |  | > 9
CCCCCCCCCC(=O)C(O)c1ccc(OC)cc1 (racemic) | Not Active |  |  |  | > 500 µM |  | > 9
CCCCCCCCCC(=O)C(O)c1ccccc1F (racemic) | Not Active |  |  |  | 74 µM | 105% | 1.5
CCCCCCCCCC(=O)C(O)c1cccc(F)c1 (racemic) | Not Active |  |  |  | 178 µM | 112% | 3.5
CCCCCCCCCC(=O)C(O)c1ccccc1Cl (racemic) | Not Active |  |  |  | > 500 µM |  | > 9
CCCCCCCCCC(=O)C(O)c1cccc(Cl)c1 (racemic) | Not Active |  |  |  | > 500 µM |  | > 9
CCCCCCCCCC(=O)C(O)c1ccc(Cl)cc1 (racemic) | Not Active |  |  |  | > 500 µM |  | > 9
CCCCCCCCCC(=O)C(O)c1ccccc1Br (racemic) | Not Active |  |  |  | > 500 µM |  | > 9
CCCCCCCCCC(=O)C(O)c1cccc(Br)c1 (racemic) | Not Active |  |  |  | > 500 µM |  | > 9
CCCCCCCCCC(=O)C(N)c1ccccc1.Cl (racemic) | Not Active |  |  |  | > 500 µM |  | > 9
